In patent US7014839B2, “Light imaging contrast agents” (Amersham Health AS, priority 1995, dated 2006):
Marks after values point to notes of the source that are not given here.

Assays:
[1] = Percent of incident light transmitted by diluted nanoparticle suspension and by methanol-dissolved agent; format: physicochemical; conditions: for % T suspension 632 nm / % T suspension 700 nm / % T suspension 820 nm / % T suspension 800 nm: nanoparticle suspension
Source text: The results are given below.

[2] = Average particle size of milled nanoparticle suspensions (light scattering); conditions: for average particle size: light scattering
Procedure: WIN 70146 (an iodinated X-ray contrast agent prepared according to Example 23 below) was added to each of 3×1.5 oz brown glass bottles containing approximately 12 ml of zirconium silicate, 1.1 mm diameter beads in an amount sufficient to be 15% (wt/vol %) of the final suspension. Bottle A was also made 3% (wt/vol %) Pluronic F-68 while bottle B was made 3% (wt/vol %)) Pluronic F-108 and bottle C was made 3% (wt/vol %) Tetronic T-908. The resulting suspensions were milled at approx 150 rpm for a total of 9 days with estimates of particle size determined at various intervals as detailed below.
WIN 70146 was milled with 1.1 mm diameter zirconium silicate beads for 3 days under aseptic conditions. The concentration of this agent was 15% WIN 70146 in the presence of 4% Pluronic F-108. No additional salts or surfactants were added.
WIN 70146 was milled with 1.1 mm diameter zirconium silicate beads in the presence of Pluronic F-108 for 3 days. […] At this point, sterile PEG 400 was added to the suspension such that at completion, the formulation contained 15% (wt/vol %) WIN 70146, 3% (wt/vol %) Pluronic F-108 and 10% PEG 400.
(§1) This suspension was then diluted in water to various levels listed below. The percent of incident light transmitted was then determined for each suspension at several wavelengths (see below). The suspensions were then dissolved by addition of methanol and examined for percent transmitted light against an equivalent solvent blank.
A formulation of WIN 70177 (an iodinated X-ray contrast agent prepared according to Example 24) was prepared as 15 gm of WIN 70177/100 ml of suspension and 4.25-gm of Pluronic F108/100 ml of suspension and 10 gm of PEG 400/100 ml of suspension.
A formulation of WIN 67722 (an iodinated X-ray contrast agent as described in U.S. Pat. No. 5,322,679) was prepared as in Example 1 using 3% Pluronic F108 and 15% PEG 1450.
as §1

[3] = Absorbance vs wavelength of dissolved and nanoparticle agent; format: physicochemical; conditions: above 600 nm; for Absorbance vs wavelength of dissolved agent: dissolved (methanol); for Absorbance vs wavelength of nanoparticle agent: particulate suspension
mice = tested on: mice
Procedure: WIN 70146 was prepared as in Example 10 and injected into the tail vein of mice at doses of 3 ml/kg, 15 ml/kg, and 30 ml/kg (ie. 0.45 gm/kg, 2.25 gm/kg and 4.5 gm/kg).

[4] = Stability testing in simulated gastric fluid; format: physicochemical; conditions: nanoparticle suspension, F108/PEG 400
Procedure: (§2) A formulation of WIN 70177 (an iodinated X-ray contrast agent prepared according to Example 24) was prepared as 15 gm of WIN 70177/100 ml of suspension and 4.25-gm of Pluronic F108/100 ml of suspension and 10 gm of PEG 400/100 ml of suspension. The suspension was milled for 5 days after which the average particle size was determined by light scattering to be about 235 nm.

[5] = Stability testing in fresh rat plasma; format: physicochemical; conditions: nanoparticle suspension, F108/PEG 400
Procedure: as §2

[6] = methanol added, 0.150%, not fully dissolved
[7] = methanol added, 0.300%, not fully dissolved
[8] = 3% Pluronic F108, 15% PEG 1450, milled 3 days, Coulter N4MD

SMILES	% T solution 632 nm ([1]; dissolved by methanol, 0.015%) [%]	% T solution 700 nm ([1]; dissolved by methanol, 0.015%) [%]	% T solution 632 nm ([1]; dissolved by methanol, 0.0375%) [%]	% T solution 700 nm ([1]; dissolved by methanol, 0.0375%) [%]	% T solution 632 nm ([1]; dissolved by methanol, 0.075%) [%]	% T solution 700 nm ([1]; dissolved by methanol, 0.075%) [%]	% T solution 632 nm [1, 6]	% T solution 700 nm [1, 6]	% T solution 632 nm [1, 7]	% T solution 700 nm [1, 7]	% T suspension 632 nm ([1]; 0.015%) [%]	% T suspension 700 nm ([1]; 0.015%) [%]	% T suspension 632 nm ([1]; 0.0375%) [%]	% T suspension 700 nm ([1]; 0.0375%) [%]	% T suspension 632 nm ([1]; 0.075%) [%]	% T suspension 700 nm ([1]; 0.075%) [%]	% T suspension 632 nm ([1]; 0.150%) [%]	% T suspension 700 nm ([1]; 0.150%) [%]	% T suspension 632 nm ([1]; 0.300%) [%]	% T suspension 700 nm ([1]; 0.300%) [%]	other results
CCOC(=O)CCCCCOC(=O)c1c(I)c(NC(C)=O)c(I)c(NC(C)=O)c1I [WIN 67722]	99.9	99.9	100.2	100.2	100.1	100.2	48.2* %	55.3* %	1.3* %	3.5* %	47.9	57.1	20.5	29.9	4.8	9.9	0.2	1.0	0.0	0.0	% T solution 820 nm ([1]; dissolved by methanol, 0.015%): 100.6%; % T solution 820 nm ([1]; dissolved by methanol, 0.0375%): 100.4%; % T solution 820 nm ([1]; dissolved by methanol, 0.075%): 100.4%; % T solution 820 nm [1, 6]: 65.5* %; % T solution 820 nm [1, 7]: 10.7* %; % T suspension 820 nm ([1]; 0.015%): 69.2%; % T suspension 820 nm ([1]; 0.0375%): 45.6%; % T suspension 820 nm ([1]; 0.075%): 22.1%; % T suspension 820 nm ([1]; 0.150%): 4.9%; % T suspension 820 nm ([1]; 0.300%): 0.2%; average diameter after autoclaving ([2]; 3% Pluronic F108, 15% PEG 1450): 214 nm; particle size [2, 8]: 213 nm; particle size, small fraction [2, 8]: 537 nm; Absorbance vs wavelength of dissolved agent [3]: has virtually no absorbance at all even at 5 times the concentration; Absorbance vs wavelength of nanoparticle agent [3]: provides an exponential drop in absorbance with wavelength
CCCCC(OC(=O)c1c(I)c(NC(C)=O)c(I)c(NC(C)=O)c1I)C(=O)OCC (centres unmarked) [WIN 70146, Benzoic Acid, 3,5-bis(acetylamino)-2,4,6-triiodo-1-(ethoxycarbonyl)pentyl ester]	100.4	100.3	99.9	99.9	99.9	99.8	41.4* %	51.9* %	1.2* %	4.0* %	54.7	64.5	25.4	36.6	7.7	15.4	0.5	1.9	0.0	0.1	Untoward effects (mice; tail vein, 3, 15 and 30 ml/kg (0.45, 2.25, 4.5 gm/kg), 7 days): No untoward effects were noted; Gross observation after sacrifice (mice; tail vein, 3-30 ml/kg, after 7 days): did not reveal any obvious lesions or disfigurations; % T solution 820 nm ([1]; dissolved by methanol, 0.015%): 100.5%; % T solution 820 nm ([1]; dissolved by methanol, 0.0375%): 99.9%; % T solution 820 nm ([1]; dissolved by methanol, 0.075%): 99.9%; % T solution 820 nm [1, 6]: 66.2* %; % T solution 820 nm [1, 7]: 13.5* %; % T suspension 820 nm ([1]; 0.015%): 77.0%; % T suspension 820 nm ([1]; 0.0375%): 53.8%; % T suspension 820 nm ([1]; 0.075%): 31.8%; % T suspension 820 nm ([1]; 0.150%): 8.6%; % T suspension 820 nm ([1]; 0.300%): 0.8%; average diameter after autoclaving ([2]; 4.25% F108/10% PEG 400): 228 nm; average particle size ([2]; 15% WIN 70146, 4% Pluronic F-108, milled 3 days): 162 nm; final particle size after autoclaving ([2]; 15% agent, 3% Pluronic F-108, 10% PEG 400, 121 degrees C. for 20 min): 248 nm; final particle size after milling ([2]; Pluronic F-108, milled 3 days, before PEG 400 and autoclaving): 235 nm; Stability to heat and shelf time of nanoparticle suspension ([2]; in F108 and T908, autoclaving, time on the shelf): excellent stability to heat (autoclaving) and time on the shelf; Absorbance vs wavelength of dissolved agent [3]: does not show any evidence of light absorbance from 600 to 800 nm; Absorbance vs wavelength of nanoparticle agent [3]: shows a classic absorbance decay due to scattering of the incident light
CC(=O)Nc1c(I)c(NC(C)=O)c(I)c(C(=O)OCC(C(=O)OC(C)C)C(=O)OC(C)C)c1I [WIN 70177, Propanedioic Acid, [[3,5-bis(acetylamino)-2,4,6-triiodobenzoyl]oxy]methyl-bis(1-methylethyl)ester]	102.2	101.9	102.3	101.9	100.9	100.8	59.5* %	67.8* %	7.4* %	14.4* %	53.3	62.8	34.6	45.7	25.8	36.8	6.7	13.6	0.1	0.6	Aggregation in simulated gastric fluid [4]: did not show any aggregation; % T solution 800 nm ([1]; dissolved by methanol, 0.015%): 101.8%; % T solution 800 nm ([1]; dissolved by methanol, 0.0375%): 101.8%; % T solution 800 nm ([1]; dissolved by methanol, 0.075%): 101.0%; % T solution 800 nm [1, 6]: 77.0* %; % T solution 800 nm [1, 7]: 26.8* %; % T suspension 800 nm ([1]; 0.015%): 73.1%; % T suspension 800 nm ([1]; 0.0375%): 59.1%; % T suspension 800 nm ([1]; 0.075%): 51.1%; % T suspension 800 nm ([1]; 0.150%): 26.3%; % T suspension 800 nm ([1]; 0.300%): 3.2%; average diameter after autoclaving ([2]; 4.25% F108/10% PEG 400): 236 nm; average particle size ([2]; 15 gm agent, 4.25 gm Pluronic F108, 10 gm PEG 400 per 100 ml, milled 5 days): about 235 nm; Aggregation in fresh rat plasma [5]: did not show any aggregation; Absorbance vs wavelength of dissolved agent [3]: has virtually no absorbance at all even at 5 times the concentration; Absorbance vs wavelength of nanoparticle agent [3]: provides an exponential drop in absorbance with wavelength
